The compounds below were run against T1, human GABA A receptor α5β3γ2 (Homo sapiens, UniProt P18507+P31644) (assay: [3H]flumazenil competition binding assay, human GABA A α5 receptor). Settings: human α5β3γ2 receptors transiently transfected in HEK293 cells; displacement of [3H]flumazenil 0.5 nM; 1 hour at 4° C.; means of two determinations; read-out: hKi GABA A α5.
T1 construct: expressed in transfected cells; host or cells: HEK293 (transiently transfected), membrane preparation
Method: Membrane Preparation and Binding Assay
The affinity of compounds at GABA A receptor subtypes was measured by competition for [3H]flumazenil (85 Ci/mmol; Roche) binding to HEK293 cells expressing rat (stably transfected) or human (transiently transfected) receptors of composition α1β3γ2, α2β3γ2, α3β3γ2 and α5β3γ2.
Cell pellets were suspended in Krebs-tris buffer (4.8 mM KCl, 1.2 mM CaCl2, 1.2 mM MgCl2, 120 mM NaCl, 15 mM Tris; pH 7.5; binding assay buffer), homogenized by polytron for ca. 20 sec on ice and centrifuged for 60 min at 4° C. (50000 g; Sorvall, rotor: SM24=20000 rpm). The cell pellets were re-suspended in Krebs-tris buffer and homogenized by polytron for ca. 15 sec on ice. Protein was measured (Bradford method, Bio-Rad) and aliquots of 1 mL were prepared and stored at −80° C.
Radioligand binding assays were carried out in a volume of […] (96-well plates) which contained […] of cell membranes, [^3H]flumazenil at a concentration of 1 nM for α1, α2 and α3 subunits and 0.5 nM for α5 subunits and the test compound in the range of […]. Nonspecific binding was defined by 10^−5 M diazepam and typically represented less than 5% of the total binding. Assays were incubated to equilibrium for 1 hour at 4° C. and harvested onto GF/C uni-filters (Packard) by filtration using a Packard harvester and washing with ice-cold wash buffer (50 mM Tris; pH 7.5). After drying, filter-retained radioactivity was detected by liquid scintillation counting. Ki values were calculated using Excel-Fit (Microsoft) and are the means of two determinations.
`CCCCc1noc(C)c1COc1cc(C(=O)NN2CCOCC2)on1` [Example 33, 3-(3-Butyl-5-methyl-isoxazol-4-ylmethoxy)-isoxazole-5-carboxylic acid morpholin-4-ylamide] gave a Ki of 10.4 nM. For `O=C(NC1CCOCC1)c1cc(OCc2c(-c3ccc(F)cc3)noc2CO)no1` [Example 44, 3-[3-(4-Fluoro-phenyl)-5-hydroxymethyl-isoxazol-4-ylmethoxy]-isoxazole-5-carboxylic acid (tetrahydro-pyran-4-yl)-amide], the Ki was 2.8 nM. `Cc1onc(-c2ccccc2)c1COc1cc(C(=O)NC(C)CO)on1` (single isomer, unassigned) [Example 8, (R or S)-3-(5-Methyl-3-phenyl-isoxazol-4-ylmethoxy)-isoxazole-5-carboxylic acid (2-hydroxy-1-methyl-ethyl)-amide] showed a Ki of 13.5 nM. `Cc1onc(-c2ccc(F)cn2)c1COc1cc(C(=O)NC(C)C)sn1` [Example 38, 3-[3-(5-Fluoro-pyridin-2-yl)-5-methyl-isoxazol-4-ylmethoxy]-isothiazole-5-carboxylic acid isopropylamide] gave a Ki of 11.8 nM. `Cc1onc(-c2ccccc2)c1COc1cc(C(=O)NN(C)C)on1` [Example 10, 3-(5-Methyl-3-phenyl-isoxazol-4-ylmethoxy)-isoxazole-5-carboxylic acid N′,N′-dimethyl-hydrazide] was tested, and the Ki was 22.2 nM. Work on `CCCCc1noc(C)c1COc1cc(C(=O)NC2CCOC2)on1` (stereo not shown) [Example 29, 3-(3-Butyl-5-methyl-isoxazol-4-ylmethoxy)-isoxazole-5-carboxylic acid (tetrahydro-furan-3-yl)-amide] yielded a Ki of 8.5 nM. `CC(C)NC(=O)c1cc(OCc2c(-c3ccc(F)cc3)noc2CO)no1` [Example 43, 3-[3-(4-Fluoro-phenyl)-5-hydroxymethyl-isoxazol-4-ylmethoxy]-isoxazole-5-carboxylic acid isopropylamide] showed a Ki of 8.8 nM. In the case of `Cc1onc(-c2ccccc2)c1COc1cc(C(=O)NC(C)C)on1` [Example 3, 3-(5-Methyl-3-phenyl-isoxazol-4-ylmethoxy)-isoxazole-5-carboxylic acid isopropylamide], the Ki is reported as 7.5 nM. Compound `CCCCc1noc(C)c1COc1cc(C(=O)NN(C)C)on1` [Example 32, 3-(3-Butyl-5-methyl-isoxazol-4-ylmethoxy)-isoxazole-5-carboxylic acid N′,N′-dimethyl-hydrazide] has a Ki of 56.8 nM. In the case of `CCCCc1noc(C)c1COc1cc(C(=O)NC2CCOC2)on1` (single isomer, unassigned) [Example 30, (R or S)-3-(3-Butyl-5-methyl-isoxazol-4-ylmethoxy)-isoxazole-5-carboxylic acid (tetrahydro-furan-3-yl)-amide], the Ki is reported as 6.5 nM.
